Experimental data published in patent US20050176755A1, “Aza-bridged-bicyclic amino acid derivatives as alpha4 integrin antagonists” (priority 2003, published 2005).
Where two headings read alike, the source gives them in different places.

Legend:
human α4β7 = target: T1, human α4β7 (Homo sapiens, UniProt P13612+P26010); assay: α4β7-K562 Cell Adhesion Assay (α4β7 Mediated Adhesion/VCAM-1); assay type: cell-based
T1 construct: expressed in transfected cells
T1 sequence (P13612 34-1032): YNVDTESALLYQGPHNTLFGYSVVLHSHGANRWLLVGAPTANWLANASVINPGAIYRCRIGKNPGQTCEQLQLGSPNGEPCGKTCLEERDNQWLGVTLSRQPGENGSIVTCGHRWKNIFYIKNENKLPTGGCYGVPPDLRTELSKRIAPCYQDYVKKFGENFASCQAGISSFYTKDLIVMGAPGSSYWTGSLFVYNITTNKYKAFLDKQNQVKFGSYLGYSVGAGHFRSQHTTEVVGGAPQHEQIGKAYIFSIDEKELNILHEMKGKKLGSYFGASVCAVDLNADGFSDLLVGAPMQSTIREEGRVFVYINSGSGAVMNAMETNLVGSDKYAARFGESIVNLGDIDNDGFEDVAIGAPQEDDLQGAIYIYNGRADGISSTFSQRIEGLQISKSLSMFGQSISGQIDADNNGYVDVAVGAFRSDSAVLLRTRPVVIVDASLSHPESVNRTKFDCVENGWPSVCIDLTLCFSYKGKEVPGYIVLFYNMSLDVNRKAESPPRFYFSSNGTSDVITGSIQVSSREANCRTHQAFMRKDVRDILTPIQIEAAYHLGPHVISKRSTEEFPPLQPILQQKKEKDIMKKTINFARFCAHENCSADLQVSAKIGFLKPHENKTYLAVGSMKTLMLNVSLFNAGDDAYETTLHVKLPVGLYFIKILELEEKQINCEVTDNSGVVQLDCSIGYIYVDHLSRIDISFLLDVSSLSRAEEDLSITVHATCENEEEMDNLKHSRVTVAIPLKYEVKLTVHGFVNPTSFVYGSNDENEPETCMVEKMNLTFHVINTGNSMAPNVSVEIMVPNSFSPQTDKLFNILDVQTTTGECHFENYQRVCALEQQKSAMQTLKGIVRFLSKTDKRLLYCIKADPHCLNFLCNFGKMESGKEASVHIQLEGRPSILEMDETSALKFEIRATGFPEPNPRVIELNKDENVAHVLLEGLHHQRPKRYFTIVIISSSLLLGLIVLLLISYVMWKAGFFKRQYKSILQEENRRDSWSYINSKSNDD
T1 sequence (P26010 20-798): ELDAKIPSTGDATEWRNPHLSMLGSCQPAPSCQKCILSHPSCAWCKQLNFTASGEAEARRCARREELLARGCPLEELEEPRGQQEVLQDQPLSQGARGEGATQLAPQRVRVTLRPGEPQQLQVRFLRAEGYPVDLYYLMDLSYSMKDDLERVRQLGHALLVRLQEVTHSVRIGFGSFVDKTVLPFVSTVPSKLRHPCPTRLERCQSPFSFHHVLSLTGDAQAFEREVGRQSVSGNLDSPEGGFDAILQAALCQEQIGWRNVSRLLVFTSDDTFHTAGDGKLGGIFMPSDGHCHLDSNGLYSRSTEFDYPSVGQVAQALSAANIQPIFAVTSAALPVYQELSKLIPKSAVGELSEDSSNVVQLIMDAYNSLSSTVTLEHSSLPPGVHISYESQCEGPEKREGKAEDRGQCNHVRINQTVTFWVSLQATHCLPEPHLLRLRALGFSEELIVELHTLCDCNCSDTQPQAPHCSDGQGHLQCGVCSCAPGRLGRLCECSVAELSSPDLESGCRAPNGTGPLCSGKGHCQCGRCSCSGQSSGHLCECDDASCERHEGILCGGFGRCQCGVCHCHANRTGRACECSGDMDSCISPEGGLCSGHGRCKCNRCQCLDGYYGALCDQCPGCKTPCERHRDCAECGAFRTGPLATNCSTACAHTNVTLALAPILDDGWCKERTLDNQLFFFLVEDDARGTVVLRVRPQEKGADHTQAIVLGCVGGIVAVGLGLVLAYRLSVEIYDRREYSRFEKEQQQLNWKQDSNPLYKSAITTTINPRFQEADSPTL
Experimental: (§1) α4β7-K562 Cell Adhesion Assay (α4β7 Mediated Adhesion/VCAM-1) Immulon 96 well plates (Dynex) were coated with 100 μL recombinant hVCAM-1 at 4.0 μg/mL in 0.05 M NaCO3 buffer pH 9.0 overnight at 4° C. (R&D Systems). Plates were washed 3 times in PBS with 1% BSA and blocked for 1 h @room temperature in this buffer. PBS was removed and compounds to be tested (50 μL) were added at 2× concentration. A stable cell line of K562 cells expressing human α4β7, (50 μL at 2×10^6/mL) labeled with 5 μM Calcein AM (Molecular Probes) for 1 h at 37° C., were added to each well and allowed to adhere for 1 h at room temperature. Plates were washed 3× in PBS+1% BSA and cells were lysed for 15 minutes in 100 μL of 1 M Tris pH 8.0 with 1% SDS. The plate was read at 485 nm excitation and 530 nm emission.

α4β1 [1] = target: T2, α4β1 (Homo sapiens, UniProt P05556+P13612); assay: Ramos Cell Adhesion Assay (α4β1 Mediated Adhesion/VCAM-1); assay type: cell-based; design: Ramos Cell Adhesion Assay (α4β1 Mediated Adhesion/VCAM-1); endogenous in cells; host or cells: Ramos cells
T2 sequence (P05556 21-798, one chain of several): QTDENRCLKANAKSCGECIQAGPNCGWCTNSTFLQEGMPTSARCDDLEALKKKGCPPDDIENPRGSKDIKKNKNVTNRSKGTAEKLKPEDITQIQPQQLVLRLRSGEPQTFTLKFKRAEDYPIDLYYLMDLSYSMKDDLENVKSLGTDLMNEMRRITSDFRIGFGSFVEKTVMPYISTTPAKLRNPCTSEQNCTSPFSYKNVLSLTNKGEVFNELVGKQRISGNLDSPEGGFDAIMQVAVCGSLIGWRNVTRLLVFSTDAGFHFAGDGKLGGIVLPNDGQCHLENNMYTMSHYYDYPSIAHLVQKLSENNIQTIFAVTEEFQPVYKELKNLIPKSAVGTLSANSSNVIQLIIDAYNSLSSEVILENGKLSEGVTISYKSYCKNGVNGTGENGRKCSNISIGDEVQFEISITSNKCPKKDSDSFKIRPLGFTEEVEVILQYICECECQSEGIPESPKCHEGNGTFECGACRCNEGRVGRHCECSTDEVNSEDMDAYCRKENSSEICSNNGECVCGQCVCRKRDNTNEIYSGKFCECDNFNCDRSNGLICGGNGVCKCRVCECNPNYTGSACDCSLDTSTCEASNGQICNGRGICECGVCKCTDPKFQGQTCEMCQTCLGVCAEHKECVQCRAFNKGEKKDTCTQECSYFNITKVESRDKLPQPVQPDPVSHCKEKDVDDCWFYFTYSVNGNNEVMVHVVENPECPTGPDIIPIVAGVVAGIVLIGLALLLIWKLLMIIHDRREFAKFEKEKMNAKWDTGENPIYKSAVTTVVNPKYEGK
Experimental: as §1, with “Ramos” for “α4β7-K562”, “(α4β1” for “(α4β7”, “@ room” for “@room”, “Ramos cells,” for “A stable cell line of K562 cells expressing human α4β7,”

α4β1 [2] = target: T2, α4β1; conditions: background, literature; cited from earlier work
[3] = system: oxazolone-induced contact hypersensitivity; conditions: mouse, 6 mg/kg, sc; cited from earlier work
[4] = system: heterotopic heart allograft; conditions: hyperlipidemic rabbit; cited from earlier work
[5] = K562 cells expressing human α4β7, adhesion to recombinant hVCAM-1, read-out: α4β7 IC50
[6] = Ramos cells, adhesion to recombinant hVCAM-1, read-out: α4β1 IC50

Compound: NCCC(=O)N1C2CCC(CC2)C1C(=O)NC(Cc1ccc(NC(=O)c2c(Cl)cncc2Cl)cc1)C(=O)O (centres unmarked) [Cpd 15]
- IC50 (human α4β7; [5]): 60 nM
- IC50 (α4β1 [1]; [6]): 29 nM

Compound: O=C(Nc1ccc(CC(NC(=O)C2C3CCC(CC3)N2C(=O)CCO)C(=O)O)cc1)c1c(Cl)cncc1Cl (centres unmarked) [Cpd 8]
- IC50 (human α4β7; [5]): 6 nM
- IC50 (α4β1 [1]; [6]): 4 nM

Compound: COCCC(=O)N1C2CCC(CC2)C1C(=O)NC(Cc1ccc(OC(=O)N(C)C)cc1)C(=O)O (centres unmarked) [Cpd 14]
- IC50 (human α4β7): 304 nM
- IC50 (α4β1 [1]): 1270 nM

Compound: O=C(Nc1ccc(CC(NC(=O)C2C3CCC(CC3)N2C(=O)CCc2ccc3c(c2)OCO3)C(=O)O)cc1)c1c(Cl)cccc1Cl (centres unmarked) [Cpd 22]
- IC50 (human α4β7; [5]): 35 nM
- IC50 (α4β1 [1]; [6]): 45 nM

Compound: O=C(Nc1ccc(CC(NC(=O)C2C3CCC(CC3)N2C(=O)CSc2ccccn2)C(=O)O)cc1)c1c(Cl)cncc1Cl (centres unmarked) [Cpd 1]
- IC50 (human α4β7; [5]): 10 nM
- IC50 (α4β1 [1]; [6]): 9 nM

Compound: COCCC(=O)Nc1ccc(CC(NC(=O)C2C3CCC(CC3)N2C(=O)CCOC)C(=O)O)cc1 (centres unmarked) [Cpd 13]
- IC50 (human α4β7; [5]): 2370 nM
- IC50 (α4β1 [1]; [6]): > 1000 nM

Compound: O=C(Nc1ccc(CC(NC(=O)C2C3CCC(CC3)N2C(=O)CCO)C(=O)O)cc1)c1c(Cl)cccc1Cl (centres unmarked) [Cpd 9]
- IC50 (human α4β7; [5]): 67 nM
- IC50 (α4β1 [1]; [6]): 135 nM

Compound: CC(C)(O)CCCC(=O)N1C2CCC(CC2)C1C(=O)NC(Cc1ccc(NC(=O)c2c(Cl)cncc2Cl)cc1)C(=O)O (centres unmarked) [Cpd 11]
- IC50 (human α4β7; [5]): 47 nM
- IC50 (α4β1 [1]; [6]): 14 nM

Compound: O=C(Nc1ccc(CC(NC(=O)C2C3CCC(CC3)N2C(=O)CSc2ccc(F)cc2)C(=O)O)cc1)c1c(Cl)cncc1Cl (centres unmarked) [Cpd 2]
- IC50 (human α4β7; [5]): 20 nM
- IC50 (α4β1 [1]; [6]): 6 nM

Compound: O=C(O)C(Cc1ccc(OC(=O)N2CCOCC2)cc1)NC(=O)C1C2CCC(CC2)N1C(=O)CCO (centres unmarked) [Cpd 10]
- IC50 (human α4β7; [5]): 896 nM
- IC50 (α4β1 [1]; [6]): > 1000 nM

Compound: O=C(Nc1ccc(CC(NC(=O)C2C3CCC(CC3)N2C(=O)CSc2ccncc2)C(=O)O)cc1)c1c(Cl)cncc1Cl (centres unmarked) [Cpd 3]
- IC50 (human α4β7; [5]): 6 nM
- IC50 (α4β1 [1]; [6]): 6 nM

Compound: Phenylacetyl-Leu-Asp-Phe-D-Pro-NH2
- IC50 (α4β1 [2]): 2000 nM
- efficacy in oxazolone-induced contact hypersensitivity [3]: efficacy similar to the α4 antibody PS/2
- efficacy in heart allograft model [4]: effective

Compound: CS(=O)(=O)CC(=O)N1C2CCC(CC2)C1C(=O)NC(Cc1ccc(NC(=O)c2c(Cl)cncc2Cl)cc1)C(=O)O (centres unmarked) [Cpd 5]
- IC50 (human α4β7; [5]): 32 nM
- IC50 (α4β1 [1]; [6]): 17 nM

Compound: O=C(O)C(Cc1ccc(OC(=O)N2CCOCC2)cc1)NC(=O)C1C2CCC(CC2)N1C(=O)CCc1ccc2c(c1)OCO2 (centres unmarked) [Cpd 23]
- IC50 (human α4β7; [5]): 277 nM
- IC50 (α4β1 [1]; [6]): 217 nM

Compound: COCCC(=O)N1C2CCC(CC2)C1C(=O)NC(Cc1ccc(NC(=O)c2c(Cl)cncc2Cl)cc1)C(=O)O (centres unmarked) [Cpd 12]
- IC50 (human α4β7; [5]): 117 nM
- IC50 (α4β1 [1]; [6]): 8 nM

Compound: CN(C)CCC(=O)N1C2CCC(CC2)C1C(=O)NC(Cc1ccc(NC(=O)c2c(Cl)cncc2Cl)cc1)C(=O)O (centres unmarked) [Cpd 16]
- IC50 (human α4β7; [5]): 177 nM
- IC50 (α4β1 [1]; [6]): 23 nM

Compound: O=C(Nc1ccc(CC(NC(=O)C2C3CCC(CC3)N2C(=O)CS(=O)(=O)c2ccccc2)C(=O)O)cc1)c1c(Cl)cncc1Cl (centres unmarked) [Cpd 6]
- IC50 (human α4β7; [5]): 27 nM
- IC50 (α4β1 [1]; [6]): 15 nM
